Measurements published in PubChem BioAssay (NCI).
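The compound was tested at five concentrations on cells cultured in 96-well plates, with a 48-hour exposure period. GI50: concentration for 50% inhibition of growth. The concentration for full growth arrest is given as TGI.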

Tests used:
Assay in all cases: NCI-60 cell line screen, 48 h
HCT-116 colon = tested on: HCT-116 colon
UO-31 renal = tested on: UO-31 renal
A549 NSCLC = tested on: A549 NSCLC
SF-295 CNS = tested on: SF-295 CNS
EKVX NSCLC = tested on: EKVX NSCLC
A498 renal = tested on: A498 renal
ACHN renal = tested on: ACHN renal
IGROV1 ovarian = tested on: IGROV1 ovarian
BT-549 breast = tested on: BT-549 breast
MDA-MB-435 = tested on: MDA-MB-435

Compound	TGI (HCT-116 colon)	TGI (UO-31 renal)	TGI (A549 NSCLC)	TGI (SF-295 CNS)	TGI (EKVX NSCLC)	TGI (A498 renal)	TGI (ACHN renal)	TGI (IGROV1 ovarian)	GI50 (HCT-116 colon)	GI50 (BT-549 breast)	TGI (BT-549 breast)	GI50 (UO-31 renal)	GI50 (MDA-MB-435)	TGI (MDA-MB-435)	GI50 (A549 NSCLC)	GI50 (SF-295 CNS)	GI50 (EKVX NSCLC)	GI50 (ACHN renal)	GI50 (IGROV1 ovarian)	GI50 (A498 renal)
CC(C)OCN1COCN=C1NC#N	> 100 µM	> 100 µM	> 100 µM	> 100 µM	> 100 µM	> 100 µM	> 100 µM	> 100 µM	–	–	–	–	–	–	–	–	–	–	–	–
COC(=O)/C(=C/N1CCN(C(=O)c2ccco2)C1=S)C(C)=O	24.2 µM	30.9 µM	39.7 µM	83.8 µM	9.89 µM	–	17.8 µM	36 µM	7.42 µM	3.48 µM	9.03 µM	13.5 µM	4.51 µM	36.6 µM	19.3 µM	18.6 µM	2.64 µM	4.05 µM	10.4 µM	–
C=C(C)C1CC[C@]2(C(=O)O)CCC3(C)[C@H](CCC4[C@@]5(C)CC[C@H](OC6OC(CO)C(O)C6OC6OC(C)C(O)C(O)C6O)[C@@](C)(CO)C5CC[C@]43C)C12 (stereo partly drawn)	> 100 µM	> 100 µM	> 100 µM	> 100 µM	> 100 µM	–	> 100 µM	> 100 µM	–	–	–	–	–	–	–	–	–	–	–	–
CC(NC1CCC[C@H]1O)c1ccccc1 (mixture of isomers)	> 100 µM	> 100 µM	> 100 µM	> 100 µM	> 100 µM	> 100 µM	> 100 µM	> 100 µM	–	–	–	–	–	–	–	–	–	–	–	–
CN/N=C(\C)CC(=O)Nc1cccc(Cl)c1C	> 100 µM	> 100 µM	> 100 µM	> 100 µM	> 100 µM	> 100 µM	> 100 µM	> 100 µM	–	–	–	–	–	–	–	–	–	–	–	–
COCCN1C2=CCCCC2=Nc2c(N)nc(N)nc21	> 100 µM	> 100 µM	> 100 µM	> 100 µM	–	> 100 µM	> 100 µM	> 100 µM	–	–	–	–	–	–	–	–	–	–	–	–
O=C(O)C1Cc2nc[nH]c2CN1 (stereo not drawn)	> 100 µM	> 100 µM	> 100 µM	> 100 µM	> 100 µM	> 100 µM	> 100 µM	> 100 µM	–	–	–	–	–	–	–	–	–	–	–	–
O=C1C=C(Br)C(=O)C(Br)=C1	> 100 µM	> 100 µM	> 100 µM	> 100 µM	> 100 µM	> 100 µM	> 100 µM	> 100 µM	–	–	–	–	–	–	–	–	–	–	–	–
Cc1cccc(NC(=O)CC2C(=O)Nc3ccccc3S2(=O)=O)c1C (stereo not drawn)	33.1 µM	50.5 µM	> 100 µM	> 100 µM	> 100 µM	> 100 µM	70.3 µM	60 µM	–	–	–	–	–	–	–	–	–	–	–	–
COCCOC(C)C(/C=N/NC(N)=S)=N/NC(N)=S (stereo not drawn)	> 100 µM	> 100 µM	> 100 µM	> 100 µM	> 100 µM	> 100 µM	> 100 µM	–	0.0189 µM	> 100 µM	> 100 µM	0.0513 µM	> 100 µM	> 100 µM	> 100 µM	–	0.0905 µM	> 100 µM	–	> 100 µM
COc1ccc(-c2c(N)[n+]([O-])c3cc(C)c(C)cc3[n+]2[O-])cc1OC	–	> 100 µM	> 100 µM	> 100 µM	> 100 µM	> 100 µM	> 100 µM	> 100 µM	–	–	–	–	–	–	–	–	–	–	–	–
COc1cc(C2C(C(=O)O)=C(C)Oc3cc4c(cc32)OCO4)cc(OC)c1OC (stereo not drawn)	> 100 µM	> 100 µM	> 100 µM	59.5 µM	> 100 µM	–	> 100 µM	> 100 µM	–	–	–	–	–	–	–	–	–	–	–	–
CCCCCN(CCCCC)C(=O)[C@@H](CCC(=O)OCc1ccccc1)NC(=O)c1cc2ccccc2[nH]1	> 100 µM	> 100 µM	> 100 µM	> 100 µM	> 100 µM	> 100 µM	> 100 µM	> 100 µM	–	–	–	–	–	–	–	–	–	–	–	–
Fc1cccc(F)c1C1SCc2nc3ccccc3n21 (stereo not drawn)	> 100 µM	> 100 µM	> 100 µM	> 100 µM	> 100 µM	> 100 µM	> 100 µM	> 100 µM	–	–	–	–	–	–	–	–	–	–	–	–
O=C1/C(=C\c2ccccc2)c2ccccc2N1Cc1ccccc1	12.4 µM	15.8 µM	22.5 µM	16.2 µM	17.1 µM	–	25.1 µM	16.5 µM	–	–	14.2 µM	–	–	16.5 µM	–	–	–	–	–	–
COC(=O)C(C(=O)C(=O)Nc1ccccc1OC)c1csc(-n2nc(-c3ccccc3)cc2-c2ccccc2)n1 (stereo not drawn)	> 100 µM	> 100 µM	> 100 µM	–	> 100 µM	> 100 µM	> 100 µM	> 100 µM	–	–	–	–	–	–	–	–	–	–	–	–
NC(C(=O)O)C(N)C(=O)O (stereo not drawn)	> 100 µM	> 100 µM	> 100 µM	> 100 µM	> 100 µM	> 100 µM	> 100 µM	> 100 µM	–	–	> 100 µM	–	–	–	–	–	–	–	–	–
N#Cc1cccc(Nc2nccc(-c3cnn4ncccc34)n2)c1	1.34 µM	> 25 µM	> 25 µM	0.0223 µM	–	0.0091 µM	> 25 µM	> 11.6 µM	0.00443 µM	0.00559 µM	0.017 µM	0.00719 µM	0.00628 µM	0.0239 µM	0.00729 µM	0.00487 µM	–	0.00487 µM	0.00937 µM	0.00371 µM
CN(C)CCCC1(c2ccc(F)cc2)OCc2cc(-c3ccc4cc[nH]c4c3)ccc21 (stereo not drawn)	3.57 µM	2.82 µM	4.57 µM	3.31 µM	5 µM	–	4.82 µM	3.61 µM	1.88 µM	2.35 µM	7.62 µM	1.45 µM	1.73 µM	3.23 µM	2.11 µM	1.79 µM	2.04 µM	2.12 µM	1.73 µM	–
COc1ccc(OC)c(CCc2cc(OC)c(OC)cc2C)c1	–	> 100 µM	> 100 µM	47.2 µM	> 100 µM	> 100 µM	> 100 µM	> 100 µM	–	–	–	–	–	–	–	–	–	–	–	–
CC1CC(=O)C(C(O)CC2CC(=O)N(c3ccccc3)C(=O)C2)C(C)C1 (stereo not drawn)	> 100 µM	> 100 µM	> 100 µM	> 100 µM	> 100 µM	> 100 µM	> 100 µM	> 100 µM	–	–	–	–	–	–	–	–	–	–	–	–
